Source: ChEMBL document CHEMBL6071190, “Discovery of BAY 2666605, a Molecular Glue for PDE3A and SLFN12” (ACS Med Chem Lett, 2024)

How the values were obtained:
[1] = tested on: HeLa; assay: Antiproliferative activity against human HeLa cells incubated for 72 hrs by Cell Titer Glo luminescence assay; type: functional, cell-based
[2] = biological target: cGMP-inhibited 3',5'-cyclic phosphodiesterase 3A (Homo sapiens, UniProt Q14432); assay: Inhibition of human full-length PDE3A expressed in Sf9 cells using [8-3H]adenosine 3', 5'-cyclic phosphate as substrate incubated for 60 mins by microbeta scintillation counting method
[3] = Selectivity ratio of IC50 for inhibition of full-length human PDE3A expressed in Sf9 cells to EC50 for antiproliferative activity against human HeLa cells
[4] = Metabolic stability in rat hepatocytes assessed as bioavailability at 1 uM measured upto 90 mins by LC-MS/MS analysis; type: ADME, Hepatocyte
[5] = tested on: SK-MEL3; assay: Antiproliferative activity against human SK-MEL3 cells incubated for 72 hrs by Cell Titer Glo luminescence assay; type: functional, cell-based; settings: SK-MEL3, 72 h
[6] = Metabolic stability in mouse hepatocytes assessed as bioavailability at 1 uM measured upto 90 mins by LC-MS/MS analysis; type: ADME, Hepatocyte
[7] = Metabolic stability in human hepatocytes assessed as bioavailability at 1 uM measured upto 90 mins by LC-MS/MS analysis; type: ADME, Hepatocyte
[8] = Clearance in mouse blood; type: ADME, tissue-based
[9] = Metabolic stability in dog hepatocytes assessed as bioavailability at 1 uM measured upto 90 mins by LC-MS/MS analysis; type: ADME, Canis lupus familiaris, Hepatocyte
[10] = Antiproliferative activity against human NCI-H196 cells incubated for 72 hrs by Cell Titer Glo luminescence assay; type: functional, cell-based; settings: NCI-H196, 72 h
[11] = tested on: A2058; assay: Antiproliferative activity against human A2058 cells incubated for 72 hrs by Cell Titer Glo luminescence assay; type: functional, cell-based; settings: A2058, 72 h
[12] = Antiproliferative activity against human L3.3 cells incubated for 72 hrs by Cell Titer Glo luminescence assay; type: functional, cell-based; settings: L3.3, 72 h
[13] = tested on: C32; assay: Antiproliferative activity against human C32 cells incubated for 72 hrs by Cell Titer Glo luminescence assay; type: functional, cell-based; settings: C32, 72 h
[14] = Antiproliferative activity against human NCI-H2172 cells incubated for 72 hrs by Cell Titer Glo luminescence assay; type: functional, cell-based; settings: NCI-H2172, 72 h
[15] = tested on: DK-MG; assay: Antiproliferative activity against human DK-MG cells incubated for 72 hrs by Cell Titer Glo luminescence assay; type: functional, cell-based
[16] = tested on: Hs-578T; assay: Antiproliferative activity against human Hs-578T cells incubated for 72 hrs by Cell Titer Glo luminescence assay; type: functional, cell-based
[17] = tested on: RVH-421; assay: Antiproliferative activity against human RVH-421 cells incubated for 72 hrs by Cell Titer Glo luminescence assay; type: functional, cell-based; settings: RVH-421, 72 h
[18] = Clearance in rat blood; type: ADME, tissue-based

Chain of cGMP-inhibited 3',5'-cyclic phosphodiesterase 3A (Q14432 whole entry): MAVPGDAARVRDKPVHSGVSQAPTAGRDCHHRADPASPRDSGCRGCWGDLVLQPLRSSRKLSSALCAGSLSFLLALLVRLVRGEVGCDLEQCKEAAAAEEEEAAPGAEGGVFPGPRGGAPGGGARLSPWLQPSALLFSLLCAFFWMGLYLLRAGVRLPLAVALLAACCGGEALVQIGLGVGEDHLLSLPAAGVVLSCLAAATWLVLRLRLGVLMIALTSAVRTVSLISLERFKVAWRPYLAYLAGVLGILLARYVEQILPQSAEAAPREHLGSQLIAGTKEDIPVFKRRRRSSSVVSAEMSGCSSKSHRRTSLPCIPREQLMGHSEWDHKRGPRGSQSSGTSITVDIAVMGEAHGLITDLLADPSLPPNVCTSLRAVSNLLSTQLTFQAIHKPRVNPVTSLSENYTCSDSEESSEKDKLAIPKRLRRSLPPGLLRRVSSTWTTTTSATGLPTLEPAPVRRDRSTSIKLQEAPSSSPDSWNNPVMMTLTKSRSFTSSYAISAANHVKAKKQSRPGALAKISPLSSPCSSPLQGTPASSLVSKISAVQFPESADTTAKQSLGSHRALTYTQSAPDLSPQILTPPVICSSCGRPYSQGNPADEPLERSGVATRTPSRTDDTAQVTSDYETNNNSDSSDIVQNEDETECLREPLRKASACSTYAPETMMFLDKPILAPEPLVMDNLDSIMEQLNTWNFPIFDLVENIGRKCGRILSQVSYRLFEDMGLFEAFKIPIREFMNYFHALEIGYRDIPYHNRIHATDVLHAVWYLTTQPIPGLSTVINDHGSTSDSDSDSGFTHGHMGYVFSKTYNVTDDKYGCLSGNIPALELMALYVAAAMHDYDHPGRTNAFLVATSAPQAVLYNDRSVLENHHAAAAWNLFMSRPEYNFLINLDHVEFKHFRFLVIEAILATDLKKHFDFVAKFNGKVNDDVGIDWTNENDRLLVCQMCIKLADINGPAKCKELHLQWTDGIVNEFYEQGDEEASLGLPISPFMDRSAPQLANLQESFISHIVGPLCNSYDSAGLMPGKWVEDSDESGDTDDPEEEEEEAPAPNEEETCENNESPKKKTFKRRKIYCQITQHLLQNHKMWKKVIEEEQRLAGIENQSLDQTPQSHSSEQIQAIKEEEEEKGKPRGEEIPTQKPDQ

| SMILES | EC50 [1] [nM] | IC50 [2] [nM] | predicted hepatic bioavailability (Fh) from hepatocyte stability at 1 µM [4] [%] | EC50 [5] [nM] | Fh at 1.5 h, 1 µM [6] [%] | Ratio IC50/EC50 [3] | also measured |
| --- | --- | --- | --- | --- | --- | --- | --- |
| C[C@@H]1OC(=O)NN=C1c1ccc(-c2ccnc(N)c2)c(C(F)(F)F)c1 | 0.69 | 76 | 83 | 1.43 | 36 | 109 | hepatic bioavailability predicted from hepatocyte stability (Fh) at 1 µM [7]: 31%; clearance [8]: 42 mL/min/kg; Fh at 1.5 h, 1 µM [9]: 56% |
| C[C@@H]1OC(=O)NN=C1c1ccc(-c2cccc(F)c2)c(C(F)(F)F)c1 | 3.42 | – | – | 5.85 | – | 22 | – |
| C[C@@H]1OC(=O)NN=C1c1ccc(-c2cnn(C(F)F)c2)c(C(F)(F)F)c1 | 0.18 | 37 | 99 | 0.38 | 27 | 202 | EC50 [10]: 32 nM; EC50 [11]: 25 nM; EC50 [12]: 15 nM; hepatic bioavailability predicted from hepatocyte stability (Fh) at 1 µM [7]: 32%; clearance [8]: 197 mL/min/kg; EC50 [13]: 52 nM; EC50 [14]: 37 nM; Fh at 1.5 h, 1 µM [9]: 69%; EC50 [15]: 13 nM; EC50 [16]: 20 nM; EC50 [17]: 47 nM |
| Cc1cc(-c2ccc(C3=NNC(=O)O[C@H]3C)cc2C(F)(F)F)ccn1 | 4.58 | – | – | 6.13 | – | 14 | – |
| C[C@@H]1OC(=O)NN=C1c1ccc(-c2ccncc2)c(C(F)(F)F)c1 | 0.6 | 67 | 93 | 1.09 | 41 | 112 | – |
| C[C@@H]1OC(=O)NN=C1c1ccc(-c2ccc(Cl)cn2)c(C(F)(F)F)c1 | 11.1 | > 1000 | 78 | 0.25 | 53 | >90 | Fh at 1.5 h, 1 µM [9]: 24% |
| C[C@@H]1OC(=O)NN=C1c1ccc(-c2ccc(O)cc2)c(C(F)(F)F)c1 | 0.68 | 26.2 | – | 1.14 | – | 38 | – |
| C[C@@H]1OC(=O)NN=C1c1ccc(-c2ccccc2F)c(C(F)(F)F)c1 | 8.19 | – | – | 15.1 | – | 18 | – |
| COc1ccc(-c2ccc(C3=NNC(=O)O[C@H]3C)cc2C(F)(F)F)cn1 | 22.5 | – | – | 39.8 | – | 4 | – |
| C[C@@H]1OC(=O)NN=C1c1ccc(-n2cc(C(F)(F)F)cn2)c(C(F)(F)F)c1 | 2.29 | 607 | 93 | 5.26 | 63 | 265 | EC50 [10]: 355 nM; EC50 [11]: 96 nM; EC50 [12]: 312 nM; hepatic bioavailability predicted from hepatocyte stability (Fh) at 1 µM [7]: 79%; clearance [8]: 18.3 mL/min/kg; EC50 [13]: 132 nM; EC50 [14]: 101 nM; Fh at 1.5 h, 1 µM [9]: 87%; EC50 [15]: 59 nM; clearance [18]: 8.17 mL/min/kg; EC50 [16]: 116 nM; EC50 [17]: 262 nM |
| O=C1CCC(c2cc(Cl)c(N3CCOCC3)c(Cl)c2)=NN1 | 6.9 | – | – | 16.8 | – | 8.5 | – |
| COc1ccc(-c2ccc(C3=NNC(=O)O[C@H]3C)cc2C(F)(F)F)cc1 | 21.8 | – | – | 37.7 | – | 4.1 | – |
| Cc1ccc(-c2ccc(C3=NNC(=O)O[C@H]3C)cc2C(F)(F)F)cn1 | 4.37 | – | – | 6.31 | – | 8 | – |
| Cc1ccncc1-c1ccc(C2=NNC(=O)O[C@H]2C)cc1C(F)(F)F | 38.7 | – | – | 54.2 | – | 6 | – |
| C[C@@H]1CC(=O)NN=C1c1ccc(N2CCCCC2)cc1 | 1.72 | 217 | 27 | 4.48 | – | 126 | – |

The next lines start with results.

| EC50 [1] [nM] | IC50 [2] [nM] | predicted hepatic bioavailability (Fh) from hepatocyte stability at 1 µM [4] [%] | EC50 [5] [nM] | Fh at 1.5 h, 1 µM [6] [%] | SMILES | Ratio IC50/EC50 [3] | also measured |
| --- | --- | --- | --- | --- | --- | --- | --- |
| 0.35 | 1.9 | 58 | 0.9 | – | C[C@@H]1CC(=O)NN=C1c1cc(F)c(N2CCOCC2)c(Cl)c1 | 5.5 | – |
| 5.67 | 222 | 85 | 12.9 | 32 | O=C1NN=C(c2ccc(-c3ccc(F)cc3)c(OC(F)(F)F)c2)CO1 | 39 | hepatic bioavailability predicted from hepatocyte stability (Fh) at 1 µM [7]: 80%; Fh at 1.5 h, 1 µM [9]: 68% |
| 1.83 | 43 | 90 | 2.6 | – | C[C@@H]1OC(=O)NN=C1c1ccc(N2CCOCC2)c(F)c1 | 23 | – |
| 1.48 | 84 | 84 | 3.6 | 54 | O=C1NN=C(c2ccc(-c3ccc(F)cc3)c(F)c2)CO1 | 57 | – |
| 6.9 | 180 | 94 | 15.6 | 47 | O=C1NN=C(c2ccc(N3CCOCC3)c(F)c2)CO1 | 26 | Fh at 1.5 h, 1 µM [9]: 100% |
| 4.94 | – | 88 | 12.8 | 40 | Cc1cc(C2=NNC(=O)OC2)ccc1-c1ccc(F)cc1 | 44 | hepatic bioavailability predicted from hepatocyte stability (Fh) at 1 µM [7]: 75%; Fh at 1.5 h, 1 µM [9]: 48% |
| 78.3 | > 1000 | – | 101 | – | O=C1CCC(c2ccc(N3CCOCC3)cc2)=NN1 | >12 | – |
| 0.34 | 6.3 | 84 | 0.77 | – | C[C@@H]1OC(=O)NN=C1c1ccc(N2CCOCC2)c(C(F)(F)F)c1 | 18 | – |
| 0.32 | 55 | 11 | 0.82 | 18 | C[C@@H]1OC(=O)NN=C1c1ccc(N2CCN(C)CC2)c(C(F)(F)F)c1 | 172 | – |
| 6.18 | 190 | – | 19.9 | 80 | O=C1CCC(c2ccc(N3CCOCC3)c(F)c2)=NN1 | 31 | – |
| 0.97 | 3.95 | 90 | 2.07 | – | C[C@@H]1CC(=O)NN=C1c1cc(F)c(N2CCOCC2)c(F)c1 | 4 | – |
| 2.54 | – | 84 | 7.95 | 38 | O=C1NN=C(c2ccc(-c3ccc(F)cc3)c(C(F)(F)F)c2)CO1 | 112 | hepatic bioavailability predicted from hepatocyte stability (Fh) at 1 µM [7]: 70%; clearance [8]: 5.83 mL/min/kg; Fh at 1.5 h, 1 µM [9]: 44% |
| 1.87 | 23 | 83 | 3.4 | – | O=C1NN=C(c2ccc(N3CCOCC3)c(C(F)(F)F)c2)CO1 | 12 | – |
| 1.59 | – | 67 | 5.06 | 37 | O=C1NN=C(c2ccc(N3CCC(F)(F)CC3)c(C(F)(F)F)c2)CO1 | – | Fh at 1.5 h, 1 µM [9]: 28% |
| 1.55 | – | 84 | 3.85 | 19 | O=C1NN=C(c2ccc(N3CCC(F)(F)CC3)c(F)c2)CO1 | 178 | hepatic bioavailability predicted from hepatocyte stability (Fh) at 1 µM [7]: 82%; clearance [8]: 91.7 mL/min/kg |
| 0.68 | 12.7 | 94 | 1.38 | – | C[C@@H]1CC(=O)NN=C1c1ccc(N2CCOCC2)c(F)c1 | 18 | – |
